Measurements reported in ChEMBL document CHEMBL1201862, “PubChem BioAssay data set” (2004).
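Results reflect a 48-hour exposure of cells in 96-well plates to compound at five concentrations. GI50: concentration for 50% inhibition of growth.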 Activity calls are given as the source filed them. Cut-off read from the data, not from the text of the source: active = GI50 up to about 1.1 µM and inactive = higher.

What was measured:
Assay in all cases: NCI-60 cell line screen, 48 h
SR = tested on: SR
SW-620 = tested on: SW-620
OVCAR-4 = tested on: OVCAR-4
SN12C = tested on: SN12C
PC-3 = tested on: PC-3
HCT-116 = tested on: HCT-116
MOLT-4 = tested on: MOLT-4
786-0 = tested on: 786-0
SF-268 = tested on: SF-268
A498 = tested on: A498
EKVX = tested on: EKVX
HOP-92 = tested on: HOP-92
M14 = tested on: M14
A549 = tested on: A549
SNB-19 = tested on: SNB-19
TK-10 = tested on: TK-10
RPMI-8226 = tested on: RPMI-8226
LOX IMVI = tested on: LOX IMVI
HL-60 = tested on: HL-60
MDA-N = tested on: MDA-N

Measured: GI50

Cn1nc2ccc(Nc3cc(=O)[nH]c4ccc5nn(C)nc5c34)cc2n1
inactive: SR 53.2 µM | SW-620 > 100 µM | OVCAR-4 > 100 µM | SN12C > 100 µM | PC-3 > 100 µM | HCT-116 > 100 µM | MOLT-4 82.2 µM | 786-0 > 100 µM | SF-268 > 100 µM | A498 > 100 µM | EKVX > 100 µM | HOP-92 > 100 µM | M14 > 100 µM | A549 > 100 µM | SNB-19 > 100 µM | TK-10 > 100 µM

O[C@H]1[C@H](O)[C@@H](O)[C@H](O)[C@@H](O)[C@H]1O [INOSITOL]
inactive: SR 56.6 µM | SW-620 > 1000 µM | OVCAR-4 > 1000 µM | SN12C > 1000 µM | PC-3 > 1000 µM | HCT-116 > 1000 µM | MOLT-4 154 µM | 786-0 > 1000 µM | SF-268 > 1000 µM | A498 > 1000 µM | HOP-92 > 1000 µM | RPMI-8226 > 1000 µM | M14 > 1000 µM | LOX IMVI > 1000 µM | A549 > 1000 µM | SNB-19 > 1000 µM | TK-10 > 1000 µM

Cc1nn2c(C(=O)N/N=C/c3ccccc3O)c(C)nc2s1
inactive: SW-620 > 100 µM | OVCAR-4 > 100 µM | SN12C 73.1 µM | HCT-116 51.6 µM | MOLT-4 51.9 µM | 786-0 47.8 µM | SF-268 > 100 µM | A498 61.5 µM | EKVX > 100 µM | HOP-92 > 100 µM | M14 53 µM | HL-60 31.8 µM | MDA-N > 100 µM | LOX IMVI > 100 µM | A549 > 100 µM | SNB-19 > 100 µM | TK-10 > 100 µM

CCCCOCn1c(=O)[nH]c(=O)c2ccccc21
inactive: SR > 100 µM | SW-620 > 100 µM | OVCAR-4 35.7 µM | SN12C > 100 µM | HCT-116 > 100 µM | MOLT-4 > 100 µM | 786-0 > 100 µM | A498 > 100 µM | EKVX 44.9 µM | HOP-92 > 100 µM | M14 > 100 µM | HL-60 68.4 µM | MDA-N > 100 µM | LOX IMVI > 100 µM | A549 > 100 µM | SNB-19 14.9 µM | TK-10 > 100 µM

COc1cc(Br)cc2cc(-c3cn4c(n3)sc3ccccc34)c(=O)oc12
inactive: SR 21.6 µM | SW-620 20.8 µM | OVCAR-4 26.1 µM | SN12C 24.7 µM | PC-3 16.3 µM | HCT-116 21.3 µM | MOLT-4 20.9 µM | 786-0 25.1 µM | SF-268 20 µM | A498 21.2 µM | EKVX 14.5 µM | HOP-92 14.7 µM | RPMI-8226 21.6 µM | M14 24.4 µM | HL-60 15.6 µM | LOX IMVI 18.4 µM | A549 36.5 µM | SNB-19 32.7 µM | TK-10 45.4 µM

C(/COc1cccnc1)=N\NC1=NCCN1
inactive: SR > 100 µM | SW-620 > 100 µM | OVCAR-4 > 100 µM | SN12C > 100 µM | HCT-116 > 100 µM | MOLT-4 > 100 µM | 786-0 > 100 µM | SF-268 > 100 µM | A498 > 100 µM | EKVX > 100 µM | HOP-92 > 100 µM | RPMI-8226 > 100 µM | M14 > 100 µM | HL-60 > 100 µM | LOX IMVI > 100 µM | A549 > 100 µM | SNB-19 > 100 µM | TK-10 > 100 µM

NNC(=O)c1cc(=O)[nH][nH]1
inactive: SW-620 > 100 µM | OVCAR-4 > 100 µM | SN12C > 100 µM | PC-3 > 100 µM | HCT-116 > 100 µM | MOLT-4 > 100 µM | 786-0 > 100 µM | SF-268 > 100 µM | EKVX > 100 µM | HOP-92 > 100 µM | RPMI-8226 > 100 µM | M14 > 100 µM | MDA-N > 100 µM | A549 > 100 µM | SNB-19 > 100 µM | TK-10 > 100 µM

CS(=O)(=O)OCCN1CCN(C(=O)c2cccc3c(Nc4ccc(S(N)(=O)=O)cc4)c4ccccc4nc23)CC1
inactive: SR > 100 µM | SW-620 > 39.3 µM | OVCAR-4 > 100 µM | SN12C > 100 µM | HCT-116 > 43.9 µM | MOLT-4 > 100 µM | 786-0 > 100 µM | SF-268 > 100 µM | A498 > 100 µM | EKVX > 100 µM | HOP-92 > 100 µM | RPMI-8226 > 46.5 µM | M14 > 100 µM | HL-60 > 63.1 µM | LOX IMVI > 40.6 µM | A549 > 100 µM | SNB-19 > 49.8 µM | TK-10 > 100 µM
